The source made the active and inactive calls. The calls are words filed in the database; no cut-off is given here.
Legend:
[1] = biological target: T1, Discoidin domain-containing receptor 2 (Homo sapiens, UniProt Q16832)
T1 sequence (Q16832 whole entry): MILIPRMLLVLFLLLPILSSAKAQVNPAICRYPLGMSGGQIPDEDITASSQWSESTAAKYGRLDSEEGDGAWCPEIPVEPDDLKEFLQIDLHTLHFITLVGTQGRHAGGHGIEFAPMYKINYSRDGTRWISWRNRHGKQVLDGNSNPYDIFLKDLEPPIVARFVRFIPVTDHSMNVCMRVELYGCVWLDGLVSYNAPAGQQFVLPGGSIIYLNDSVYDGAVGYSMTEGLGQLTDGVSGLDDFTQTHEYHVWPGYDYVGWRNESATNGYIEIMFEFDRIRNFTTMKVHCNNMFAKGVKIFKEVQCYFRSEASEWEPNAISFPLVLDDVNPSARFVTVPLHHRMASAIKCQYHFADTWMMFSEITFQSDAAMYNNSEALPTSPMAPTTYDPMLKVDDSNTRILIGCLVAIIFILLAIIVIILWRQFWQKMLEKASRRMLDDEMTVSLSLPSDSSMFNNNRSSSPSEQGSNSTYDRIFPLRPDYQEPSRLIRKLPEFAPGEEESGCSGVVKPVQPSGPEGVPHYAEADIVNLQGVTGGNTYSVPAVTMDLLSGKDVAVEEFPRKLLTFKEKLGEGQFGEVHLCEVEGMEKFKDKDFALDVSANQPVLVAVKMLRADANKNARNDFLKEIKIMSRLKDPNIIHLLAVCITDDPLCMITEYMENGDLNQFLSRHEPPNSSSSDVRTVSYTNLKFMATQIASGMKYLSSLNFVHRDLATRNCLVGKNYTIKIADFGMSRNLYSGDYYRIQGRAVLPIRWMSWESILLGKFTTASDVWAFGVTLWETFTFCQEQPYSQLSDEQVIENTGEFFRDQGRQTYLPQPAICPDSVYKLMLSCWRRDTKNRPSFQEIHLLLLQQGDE
Description: Inhibition of wild type DDR2 (unknown origin) preincubated for 30 mins before substrate addition by FRET assay

[2] = biological target: Discoidin domain-containing receptor 2 (Homo sapiens, UniProt Q16832, T654M); experiment: Inhibition of DDR2 T654M mutant (unknown origin) preincubated for 30 mins before substrate addition by FRET assay
[3] = biological target: T1, Discoidin domain-containing receptor 2; remark: listed apart in the source
Description: Binding affinity to human acrylodan-labeled N-terminal His-tagged DDR2 (558 to 855 aa) by FLiK assay

[4] = biological target: T1, Discoidin domain-containing receptor 2; experiment: Inhibition of DDR2 (unknown origin) after 120 mins by radiometric assay in presence of gamma-[33P]-ATP
[5] = biological target: Epithelial discoidin domain-containing receptor 1 (Homo sapiens, UniProt Q08345); experiment: Inhibition of DDR1 (unknown origin) after 120 mins by radiometric assay in presence of gamma-[33P]-ATP
[6] = biological target: T1, Discoidin domain-containing receptor 2; experiment: Binding affinity to human acrylodan-labeled N-terminal His-tagged DDR2 (558 to 855 aa) by fluorescence spectroscopy
[7] = biological target: T2, Discoidin domain-containing receptor 2 (Homo sapiens) (UniProt Q16832); experiment: Reversible binding affinity to human acrylodan-labeled N-terminal His-tagged DDR2 (558 to 855 aa) at 100 nM by fluorescence spectroscopy
T2 sequence (whole entry): T1 sequence (Q16832 whole entry)

[8] = biological target: T1, Discoidin domain-containing receptor 2; experiment: Binding affinity to human DDR2 by Ambit assay

Sequence of Discoidin domain-containing receptor 2 (Homo sapiens, UniProt Q16832, T654M) (Q16832 22-855 T654M limits assumed): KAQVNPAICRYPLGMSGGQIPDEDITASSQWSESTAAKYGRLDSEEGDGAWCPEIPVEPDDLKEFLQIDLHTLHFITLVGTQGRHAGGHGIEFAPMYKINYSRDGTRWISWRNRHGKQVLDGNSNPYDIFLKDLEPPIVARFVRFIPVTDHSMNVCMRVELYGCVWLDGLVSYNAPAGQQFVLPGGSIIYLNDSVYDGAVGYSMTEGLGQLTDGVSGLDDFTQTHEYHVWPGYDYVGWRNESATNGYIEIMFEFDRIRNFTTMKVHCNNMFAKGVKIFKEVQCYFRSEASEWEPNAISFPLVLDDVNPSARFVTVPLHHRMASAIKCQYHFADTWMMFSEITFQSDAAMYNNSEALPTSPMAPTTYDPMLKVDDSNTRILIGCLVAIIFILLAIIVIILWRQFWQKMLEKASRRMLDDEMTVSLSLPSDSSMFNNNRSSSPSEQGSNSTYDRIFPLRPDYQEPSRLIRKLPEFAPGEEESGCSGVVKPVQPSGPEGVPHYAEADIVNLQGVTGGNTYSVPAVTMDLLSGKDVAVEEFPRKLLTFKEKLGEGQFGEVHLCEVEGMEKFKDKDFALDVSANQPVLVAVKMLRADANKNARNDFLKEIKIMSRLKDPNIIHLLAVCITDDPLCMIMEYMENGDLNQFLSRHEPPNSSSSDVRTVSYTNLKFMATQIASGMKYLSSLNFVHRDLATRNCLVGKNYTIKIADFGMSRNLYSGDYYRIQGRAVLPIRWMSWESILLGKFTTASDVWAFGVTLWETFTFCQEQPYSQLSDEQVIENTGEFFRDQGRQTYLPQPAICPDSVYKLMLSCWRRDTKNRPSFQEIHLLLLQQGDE
Sequence of Epithelial discoidin domain-containing receptor 1 (Q08345 whole entry, the tested form may be a part): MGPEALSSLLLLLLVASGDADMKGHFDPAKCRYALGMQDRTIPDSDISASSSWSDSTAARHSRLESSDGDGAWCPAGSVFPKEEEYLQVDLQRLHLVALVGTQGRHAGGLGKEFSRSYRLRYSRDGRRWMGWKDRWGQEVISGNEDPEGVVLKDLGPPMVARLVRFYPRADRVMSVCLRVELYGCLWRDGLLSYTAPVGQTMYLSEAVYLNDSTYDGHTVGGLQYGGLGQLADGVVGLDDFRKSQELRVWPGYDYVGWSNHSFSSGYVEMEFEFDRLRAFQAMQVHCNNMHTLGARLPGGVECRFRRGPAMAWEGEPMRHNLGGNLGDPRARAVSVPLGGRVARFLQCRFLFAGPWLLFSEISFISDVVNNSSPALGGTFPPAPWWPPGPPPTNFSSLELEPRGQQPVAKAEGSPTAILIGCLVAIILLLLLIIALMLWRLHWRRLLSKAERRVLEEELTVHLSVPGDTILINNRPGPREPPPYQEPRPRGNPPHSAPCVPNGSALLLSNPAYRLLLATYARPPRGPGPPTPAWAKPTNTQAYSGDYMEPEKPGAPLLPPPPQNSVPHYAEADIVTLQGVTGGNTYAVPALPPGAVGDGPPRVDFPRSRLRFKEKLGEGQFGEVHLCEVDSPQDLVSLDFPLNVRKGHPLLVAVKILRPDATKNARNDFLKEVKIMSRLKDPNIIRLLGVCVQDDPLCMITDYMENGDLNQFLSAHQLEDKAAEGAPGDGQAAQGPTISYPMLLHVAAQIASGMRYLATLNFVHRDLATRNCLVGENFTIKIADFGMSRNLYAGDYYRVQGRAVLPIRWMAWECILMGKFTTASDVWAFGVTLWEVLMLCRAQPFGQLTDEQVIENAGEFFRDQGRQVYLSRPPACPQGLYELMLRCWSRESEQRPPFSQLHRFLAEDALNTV

Compound | IC50 [1] [nM] | IC50 [2] [nM] | Kd [3] [nM] | IC50 [4] [nM] | IC50 [5] [nM] | Kd [6] [nM] | Activity [7] | Kd [8] [nM]
O=C(O)Cc1ccc(-n2nc(C3CCCC3)cc2NC(=O)Nc2nc(CCOCc3ccccc3)cs2)cc1 | 2170 | 1840 | > 1000 | – | – | – | – | –
CC(C)(C)c1cc(NC(=O)Nc2ccc(Nc3ncnc4ccccc34)cc2)n(-c2cccc(N)c2)n1 | 3 | 1 | 93 | 18 | – | – | – | –
Cc1ccc(-n2nc(C(C)(C)C)cc2NC(=O)Nc2nccs2)cc1 | 4700 | 1150 | 702 | – | – | – | – | –
NC(=O)c1c(OCc2c(F)cc(Br)cc2F)nsc1NC(=O)NCCCCN1CCCC1 [OSI-632] | 24 | 450 | 422 | – | – | – | – | –
CCOCCNc1cccc(-n2nc(C(C)(C)C)cc2NC(=O)Nc2ccc(OCCN3CCOCC3)c3ccccc23)c1 | 14400 | – | > 1000 | – | – | – | – | –
CC(C)(C)c1cc(NC(=O)Nc2nccs2)n(-c2ccc(CC(=O)O)cc2)n1 | 9170 | 820 | > 1000 | – | – | – | – | –
Nc1c(-c2ccccc2)oc2ccccc2c1=O | 80800 | ≥ 100000 | > 1000 | – | – | – | – | –
Cc1ccc(-n2nc(C(C)(C)C)cc2NC(=O)Nc2nc(CCOCc3ccc(F)cc3)cs2)cc1 | 3040 | 230 | 406 | – | – | – | – | –
Cc1ccc(-n2nc(C(C)(C)C)cc2NC(=O)Nc2nc(CCOCc3ccncc3)cs2)cc1 | 19 | 2 | 63 | 65 | 68 | – | – | –
CSc1ccc(-c2nc3cnccn3c2NC2CCCCC2)cc1 | – | – | > 1000 | – | – | – | – | –
CC(C)(C)c1cc(NC(=O)Nc2ccc(Cl)cc2)n(-c2cccc(N)c2)n1 | 558 | 717 | 15 | – | – | 3.8 | Active | 15
CC(C)(C)c1cc(NC(=O)Nc2cccc3ccccc23)n(-c2cccc([N+](=O)[O-])c2)n1 | 332 | ≥ 100000 | 428 | – | – | – | – | –

The remaining lines, values ahead:

IC50 [1] [nM] | IC50 [2] [nM] | Kd [3] [nM] | IC50 [4] [nM] | IC50 [5] [nM] | Kd [6] [nM] | Activity [7] | Kd [8] [nM] | Compound
8 | 72 | 20 | – | – | – | – | – | CC(C)(C)c1cc(NC(=O)Nc2ccc(OCCN3CCOCC3)c3ccccc23)n(-c2cccc(N)c2)n1
10900 | – | 915 | – | – | – | – | – | O=C(Nc1ccc(OCCN2CCOCC2)c2ccccc12)c1cc(F)cc(N2CCOCC2)c1
183 | 808 | 15 | – | – | – | – | – | Cc1cccc(-n2nc(C(C)(C)C)cc2NC(=O)Nc2ccc(Cl)cc2)c1
408 | ≥ 100000 | 252 | – | – | – | – | – | Cc1ccc(-n2nc(C(C)(C)C)cc2NC(=O)Nc2cccc3ccccc23)cc1
– | – | > 1000 | – | – | – | – | – | COc1ccccc1NC(=O)c1sc2nc(C)c(C(=O)Nc3ccc(C)cc3C)c(-c3ccc(NC(C)=O)cc3)c2c1N
1560 | 380 | 385 | – | – | – | – | – | O=C(O)Cc1cccc(-n2nc(C3CCCC3)cc2NC(=O)Nc2nc(CCOCc3ccccc3)cs2)c1
1230 | 76 | 424 | – | – | – | – | – | CC(C)(C)c1cc(NC(=O)Nc2nc(CCOCc3ccc(F)cc3)cs2)n(-c2ccc(CC(=O)O)cc2)n1
10700 | 1670 | > 1000 | – | – | – | – | – | CC(C)(C)c1cc(NC(=O)Nc2nc(CCOCc3ccccc3)cs2)n(-c2cccc(CC(=O)O)c2)n1
856 | 1230 | 412 | – | – | – | – | – | CC(C)(C)c1cc(NC(=O)Nc2ccc(Cl)cc2)n(-c2cccc([N+](=O)[O-])c2)n1
9410 | 2500 | > 1000 | – | – | – | – | – | CC(C)(C)c1cc(NC(=O)Nc2ccccc2)n(-c2cccc(N)c2)n1
29 | 687 | 30 | – | – | – | – | – | CCC(=O)Nc1cccc(-n2nc(C(C)(C)C)cc2NC(=O)Nc2ccc(OCCN3CCOCC3)c3ccccc23)c1
2230 | 670 | 382 | – | – | – | – | – | CC(C)(C)c1cc(NC(=O)Nc2nc(CCOCc3ccccc3)cs2)n(-c2ccc(CC(=O)O)cc2)n1
2 | 73 | > 1000 | 75 | – | – | – | – | CC(C)(C)c1cc(NC(=O)Nc2cccc(Nc3ncnc4ccccc34)c2)n(-c2cccc(N)c2)n1

From ChEMBL document CHEMBL3259697, “Identification of type II and III DDR2 inhibitors” (J Med Chem, 2014)
